Measured values published in patent US9180120B2, “Substituted N-phenethyltriazoloneacetamides and use thereof” (Bayer Intellectual Property GmbH, priority 2010, dated 2015).

Experiments:
human V1a receptor = human V1a receptor (Homo sapiens (Human), UniProt P37288); assay: Cellular in vitro assay for determining the vasopressin receptor activity (aequorin luminescence, CHO cells, antagonism of [Arg8]-vasopressin); type: cell-based; details: cell line transfected with the human V1a receptor; agonist [Arg8]-vasopressin; read-out: IC50 hV1a
human V1a receptor, sequence (P37288 whole entry): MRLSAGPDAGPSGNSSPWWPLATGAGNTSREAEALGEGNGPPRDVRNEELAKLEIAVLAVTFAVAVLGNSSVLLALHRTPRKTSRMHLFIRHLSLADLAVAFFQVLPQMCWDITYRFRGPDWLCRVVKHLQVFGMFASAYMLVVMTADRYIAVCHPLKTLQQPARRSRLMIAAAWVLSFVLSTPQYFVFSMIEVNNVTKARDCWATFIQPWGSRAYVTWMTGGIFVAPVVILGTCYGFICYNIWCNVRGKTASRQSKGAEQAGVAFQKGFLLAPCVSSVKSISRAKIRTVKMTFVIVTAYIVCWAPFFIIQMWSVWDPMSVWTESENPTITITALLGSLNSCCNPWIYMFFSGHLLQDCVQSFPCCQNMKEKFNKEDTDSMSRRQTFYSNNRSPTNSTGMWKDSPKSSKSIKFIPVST
Excerpt: (§1) • EDTA ethylenediaminetetraacetic acid • DMEM Dulbecco's Modified Eagle Medium • FCS foetal calf serum • HEPES 4-(2-hydroxyethyl)-1-piperazineethanesulphonic acid • SmGM Smooth Muscle Cell Growth Media • Tris-HCl 2-amino-2-(hydroxymethyl)-1,3-propanediol hydrochloride B-1. Cellular in vitro Assay for Determining the Vasopressin Receptor Activity
(§2) The identification of agonists and antagonists of the V1a and V2 vasopressin receptors from humans and rats and also the quantification of the activity of the compounds of the invention takes place using recombinant cell lines. […] In addition, the cells are stably transfected with the human or rat V1a or V2 receptors.
(§3) On the day before the assay, the cells are plated out in culture medium (DMEM, 10% FCS, 2 mM glutamine, 10 mM HEPES) in 384-well microtitre plates and kept in a cell incubator (96% humidity, 5% v/v CO2, 37° C.). On the day of the assay, the culture medium is replaced by a Tyrode solution (140 mM NaCl, 5 mM KCl, 1 mM MgCl2, 2 mM CaCl2, 20 mM glucose, 20 mM HEPES), which additionally contains the cofactor coelenterazine (50 μM), and the microtitre plate is then incubated for a further 3-4 hours. The test substances in various concentrations are placed for 10 to 20 minutes in the wells of the microtitre plate before the agonist [Arg^8]-vasopressin is added, and the resulting light signal is measured immediately in the luminometer.

human V2 receptor = human V2 receptor (Homo sapiens (Human), UniProt P30518); assay: as above; type: cell-based; details: cell line transfected with the human V2 receptor; agonist [Arg8]-vasopressin; read-out: IC50 hV2
human V2 receptor, sequence (P30518 whole entry): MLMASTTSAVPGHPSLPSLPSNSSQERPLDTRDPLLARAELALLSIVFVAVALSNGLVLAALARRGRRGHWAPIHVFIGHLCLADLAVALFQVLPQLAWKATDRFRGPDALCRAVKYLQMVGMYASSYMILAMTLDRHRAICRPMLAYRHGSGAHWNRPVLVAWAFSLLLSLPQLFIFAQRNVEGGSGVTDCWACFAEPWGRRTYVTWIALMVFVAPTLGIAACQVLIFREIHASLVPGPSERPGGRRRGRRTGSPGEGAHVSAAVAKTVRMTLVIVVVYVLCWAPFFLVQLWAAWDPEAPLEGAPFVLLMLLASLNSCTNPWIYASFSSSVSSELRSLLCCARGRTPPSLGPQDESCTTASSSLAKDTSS
Excerpt: as §1, §2, §3

IC50 (human V1a receptor) [nM] | IC50 (human V2 receptor) [nM] | Structure (SMILES)
10 | 22 | NC(=O)OC(CNC(=O)Cn1nc(-c2ccc(Cl)cc2)n(Cc2ccccc2F)c1=O)c1ccccc1Cl (racemic) [Example 57, 1-(2-Chlorophenyl)-2-({[3-(4-chlorophenyl)-4-(2-fluorobenzyl)-5-oxo-4,5-dihydro-1H-1,2,4-triazol-1-yl]acetyl}amino)ethyl carbamate]
14 | 48 | NC(=O)OC(CNC(=O)Cn1nc(-c2ccc(Cl)cc2)n(CCC(F)(F)F)c1=O)c1ccccc1Cl (racemic) [Example 59, 1-(2-Chlorophenyl)-2-({[3-(4-chlorophenyl)-5-oxo-4-(3,3,3-trifluoropropyl)-4,5-dihydro-1H-1,2,4-triazol-1-yl]acetyl}amino)ethyl carbamate]
51 | 1200 | COCCn1c(-c2ccc(Cl)s2)nn(CC(=O)NCC(NC(=O)OC(C)(C)C)c2ccccc2C(F)(F)F)c1=O (racemic) [Example 66, tert-Butyl {2-({[3-(5-chloro-2-thienyl)-4-(2-methoxyethyl)-5-oxo-4,5-dihydro-1H-1,2,4-triazol-1-yl]acetyl}amino)-1-[2-(trifluoromethyl)phenyl]ethyl}carbamate]
18 | 300 | CC(C)(C)OC(=O)NC(CNC(=O)Cn1nc(-c2ccc(Cl)s2)n(Cc2ccccc2F)c1=O)c1ccccc1C(F)(F)F (racemic) [Example 67, tert-Butyl {2-({[3-(5-chloro-2-thienyl)-4-(2-fluorobenzyl)-5-oxo-4,5-dihydro-1H-1,2,4-triazol-1-yl]acetyl}amino)-1-[2-(trifluoromethyl)phenyl]ethyl}carbamate]
130 | 3500 | COCCn1c(-c2ccc(Cl)s2)nn(CC(=O)NCC(NS(C)(=O)=O)c2ccccc2C(F)(F)F)c1=O (racemic) [Example 69, 2-[3-(5-Chloro-2-thienyl)-4-(2-methoxyethyl)-5-oxo-4,5-dihydro-1H-1,2,4-triazol-1-yl]-N-{2-[(methylsulphonyl)amino]-2-[2-(trifluoromethyl)phenyl]ethyl}acetamide]
1 | 16 | NC(=O)OCC(CNC(=O)Cn1nc(-c2ccc(Cl)cc2)n(C[C@H](O)C(F)(F)F)c1=O)c1ccccc1C(F)(F)F (single isomer, unassigned) [Example 2]
12 |  | NC(=O)OCC(CNC(=O)Cn1nc(-c2ccc(Cl)cc2)n(C[C@H](O)C(F)(F)F)c1=O)c1ccccc1Cl (single isomer, unassigned) [Example 6]
63 | 5 | NC(=O)OCC(CNC(=O)Cn1nc(-c2ccc(Cl)cc2)n(C[C@H](O)C(F)(F)F)c1=O)c1cccc(C(F)(F)F)c1 (single isomer, unassigned) [Example 9]
 | 11 | CC(C)(C)OC(=O)NC(CNC(=O)Cn1nc(-c2ccc(Cl)cc2)n(C[C@H](O)C(F)(F)F)c1=O)c1cccc(Cl)c1Cl (single isomer, unassigned) [Example 19]
17 | 8 | NC(=O)NC(CNC(=O)Cn1nc(-c2ccc(Cl)cc2)n(C[C@H](O)C(F)(F)F)c1=O)c1ccccc1Cl (single isomer, unassigned) [Example 33]
25 | 10 | CC(=O)NC(C)(CNC(=O)Cn1nc(-c2ccc(Cl)cc2)n(C[C@H](O)C(F)(F)F)c1=O)c1cccc(C(F)(F)F)c1 (single isomer, unassigned) [Example 39]
8 | 3 | NC(=O)OC(CNC(=O)Cn1nc(-c2ccc(Cl)cc2)n(C[C@H](O)C(F)(F)F)c1=O)c1ccccc1C(F)(F)F (single isomer, unassigned) [Example 42]
7 | 2 | NC(=O)OC(CNC(=O)Cn1nc(-c2ccc(Cl)cc2)n(C[C@H](O)C(F)(F)F)c1=O)c1cccc(Cl)c1Cl (single isomer, unassigned) [Example 52]
24 | 9 | CCNC(=O)OCC(CNC(=O)Cn1nc(-c2ccc(Cl)cc2)n(C[C@H](O)C(F)(F)F)c1=O)c1cccc(C(F)(F)F)c1 (stereo partly drawn) [Example 10, 3-[({3-(4-Chlorophenyl)-5-oxo-4-[(2S)-3,3,3-trifluoro-2-hydroxypropyl]-4,5-dihydro-1H-1,2,4-triazol-1-yl}acetyl)amino]-2-[3-(trifluoromethyl)phenyl]propyl ethylcarbamate]
4 | 70 | CC(C)(C)OC(=O)NC(CNC(=O)Cn1nc(-c2ccc(Cl)cc2)n(C[C@H](O)C(F)(F)F)c1=O)c1ccccc1C(F)(F)F (stereo partly drawn) [Example 13, tert-Butyl {2-[({3-(4-chlorophenyl)-5-oxo-4-[(2S)-3,3,3-trifluoro-2-hydroxypropyl]-4,5-dihydro-1H-1,2,4-triazol-1-yl}acetyl)amino]-1-[2-(trifluoromethyl)phenyl]ethyl}carbamate]
8 | 5 | CS(=O)(=O)NC(CNC(=O)Cn1nc(-c2ccc(Cl)cc2)n(C[C@H](O)C(F)(F)F)c1=O)c1ccccc1Cl (stereo partly drawn) [Example 25, N-{2-(2-Chlorophenyl)-2-[(methylsulphonyl)amino]ethyl}-2-{3-(4-chlorophenyl)-5-oxo-4-[(2S)-3,3,3-trifluoro-2-hydroxypropyl]-4,5-dihydro-1H-1,2,4-triazol-1-yl}acetamide]
19 | 13 | O=CNC(CNC(=O)Cn1nc(-c2ccc(Cl)cc2)n(C[C@H](O)C(F)(F)F)c1=O)c1cccc(C(F)(F)F)c1 (stereo partly drawn) [Example 36, 2-{3-(4-Chlorophenyl)-5-oxo-4-[(2S)-3,3,3-trifluoro-2-hydroxypropyl]-4,5-dihydro-1H-1,2,4-triazol-1-yl}-N-{2-formamido-2-[3-(trifluoromethyl)phenyl]ethyl}acetamide]
5 | 2 | NC(=O)OC(CNC(=O)Cn1nc(-c2ccc(Cl)cc2)n(C[C@H](O)C(F)(F)F)c1=O)c1ccccc1Cl (stereo partly drawn) [Example 47, 1-(2-Chlorophenyl)-2-[({3-(4-chlorophenyl)-5-oxo-4-[(2S)-3,3,3-trifluoro-2-hydroxypropyl]-4,5-dihydro-1H-1,2,4-triazol-1-yl}acetyl)amino]ethyl carbamate]
4 | 15 | O=C(Cn1nc(-c2ccc(Cl)cc2)n(C[C@H](O)C(F)(F)F)c1=O)N[C@@H](CO)Cc1cccc(C(F)(F)F)c1 [Example 53, 2-{3-(4-Chlorophenyl)-5-oxo-4-[(2S)-3,3,3-trifluoro-2-hydroxypropyl]-4,5-dihydro-1H-1,2,4-triazol-1-yl}-N-{(2R)-1-hydroxy-3-[3-(trifluoromethyl)phenyl]propan-2-yl}acetamide]
